Measured values taken from article PMC3747139 (PLoS ONE, 2013).
Where two headings read alike, the source gives them in different places. Marks after values point to notes of the source that are not given here.

How the values were obtained:
[1] = Cell count assay (trypan blue); assay type: cell-based; design: concentration or dose not given beside the values; settings: human; for viability at 24 h: read-out: Number of viable cells after 24 h of ligand treatment; for viability at 48 h: read-out: Number of viable cells after 48 h of ligand treatment
Procedure: (§1) Normal and tumor cell lines were seeded at 20000–40000 cells/cm^2 with 0.2 mL/cm^2 media and incubated for 48 h at 37°C, 6% CO2, 95% relative humidity. […] After 24 h and 48 h of incubation, cells were washed with 300 µl PBS or 0.02% EDTA, trypsinized, followed by harvesting at 37°C. 200 µl cell suspension was transferred into 1.5 ml microcentrifuge tube. To the cell suspension, 300 µl PBS followed by 500 µl of 0.4% trypan blue solution was added. To get the homogenised solution, the microcentrifuge tube was gently tapped for 5 min, 20 µl of cell suspension was loaded in to a chamber of the haemocytometer.

[2] = system: HQF DNA [d(T2AG3)4]; test: SYBR Green melting study with HQF DNA; assay type: binding, human; settings: melting temperature of HQF DNA (5 µM) in presence of 1 µM ligand
Procedure: When quadruplex DNA melts to form ssDNA structure, SG fluorescence intensity gradually reduces as SG has no binding to ssDNA. Each time, 5 µM of HQF DNA [d(T2AG3)4)], 5 µM of dsDNA (prepared by mixing equal concentration of poly-dA-dT and poly-dT-dA), 5 µM ssDNA ( poly dT alone) and 1 µM of each ligand was incubated at 4°C for 16 h, and used for melting studies. […] Affinity, stoichiometry and thermodynamic parameters for quadruplex-ligand complex were studied with 60 µM of ligand and 10 µM of HQF DNA using Microcal VP-ITC (Northampton, MA, USA). Ligand addition to G-quadruplex DNA was made every 180 seconds. Titration experiments were performed thrice and blank correction was made each time to minimize error.

[3] = system: B16F10; test: Cell count assay (trypan blue); assay type: cell-based, human
Procedure: as §1

[4] = system: A549; test: Cell count assay (trypan blue); assay type: cell-based, human;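 as to Number of viable cells after 24 h of ligand treatment: each ligand tested at its own IC50 concentration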
Procedure: as §1

[5] = system: MCF-7; test: Cell count assay (trypan blue); assay type: cell-based, human;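 as to Number of viable cells after 48 h of ligand treatment: each ligand tested at its own IC50 concentration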
Procedure: as §1

Compound COc1ccc(-c2c(-c3ccccc3)nnn2CC2CCCCO2)cc1 (stereo not shown) [Ligand L14, 5-(4-Methoxyphenyl)-4-phenyl-1-((tetrahydro-2H-pyran-2-yl)methyl)-1H-1,2,3-triazole] has a viability at 24 h ([1]; CRL-2115 cells (normal cell line), CRL-2115, 24 h) of 80 to 90%, a viability at 48 h ([1]; CRL-2115 cells (normal cell line), CRL-2115, 48 h) of 80 to 90% and a viability at 24 h ([1]; CRL-2120 cells (normal cell line), CRL-2120, 24 h) of 80 to 90%. The viability at 48 h ([1]; CRL-2120 cells (normal cell line), CRL-2120, 48 h) was 80 to 90%, the viability at 24 h ([1]; NCM-460 cells (normal cell line), NCM-460, 24 h) was 80 to 90% and the viability at 48 h ([1]; NCM-460 cells (normal cell line), NCM-460, 48 h) was 50 to 60%. For the same compound, the Tm [2] was 27 ^o C, the “Number of viable cells after 24 h of ligand treatment” value ([3]; B16F10, 24 h) was “+ (Viable cells in the range of 80%–90%)” and the “Number of viable cells after 48 h of ligand treatment” value ([3]; B16F10, 48 h) was “++ (Viable cells in the range of 50%–60%)”. The “Number of viable cells after 24 h of ligand treatment” value ([4]; A549, 24 h) was “+ (Viable cells in the range of 80%–90%)”, the “Number of viable cells after 48 h of ligand treatment” value ([4]; A549, 48 h) was “++ (Viable cells in the range of 50%–60%)” and the “Number of viable cells after 24 h of ligand treatment” value ([5]; MCF-7, 24 h) was “+ (Viable cells in the range of 80%–90%)”. The “Number of viable cells after 48 h of ligand treatment” value ([5]; MCF-7, 48 h) was “++ (Viable cells in the range of 50%–60%)”.
